“And” between values parts separate entries of the source, which are not always exact repeats. Identical values can stand only once.
Tested on: polychromatic cells (PCEs)
Experiment: PCE count in blood by flow cytometry
Assay type: in vivo, mouse
Conditions: MMS 100 μg/g body weight IP at 0 and 48 hours
Method: When two dyes are used for simultaneous micronucleus and PCE discrimination, the cell suspension is prepared as follows: The Hoechst 33258 working solution described above is prepared and is filtered through an 0.2 micron Acro-disk (Gilman Sciences). In addition, a propidium iodide (PI) working solution is prepared (5 mg PI/100 ml phosphate buffered saline (PBS)). A buffer-dye solution is then prepared by adding the PI solution (100 μl) and Hoechst 33258 working solution (25 μl) to PBS (867.5 μl). The resulting buffer-dye solution is then dispensed (992.5 μl) into samples tubes. A sample of fixed blood (15 μl) is then added to the corresponding tube. When blood from a malaria (P. berghei) infected mouse was fixed and stained by this procedure, the bivariate pattern shown in FIG. 1B resulted, in which a stronger red fluorescence signal was obtained. In this case, good resolution is achieved if BSA is omitted from the stained cell suspension. The pH of the stained solution is important for good fluorescence emission profiles and resolution of the different cell populations. With Hoechst 33258 and propidium iodide, good results can be obtained in the range from pH 6 to pH 8. Lower or higher pH levels cause a broadening of the fluorescence patterns which adversely affect the resolution of the PCes and micronucleated cells. Operationally,it is advisable to store the fixed samples and analyze freshly stained samples.
Although it is inappropriate to directly compare the number of MNs in the 0 hr and 96 hr samples because of this PCE change, it is possible to normalize the data to take into account said change. An increase in the number of PCEs will cause a decrease in the total number of MNs counted in the PCE window for a 96 hour sample. […]
Another staining embodiment of this invention involves the use of dual parameter data acquisition in conjunction with two dyes, Hoechst 33258 and propidium iodide so as to analyze both MNs and PCEs. […] Propidium iodide endows the PCEs with a strong red fluorescence signal which pulls them out of the RBC contour. […]

COS(C)(=O)=O [MMS, methyl methanesulfonate]
PCEs (96 hr) (Hoechst 33258 & propidium iodide): 17,684 PCEs per 500,000 cells and 15,408 PCEs per 500,000 cells and 13,095 PCEs per 500,000 cells and 14,356 PCEs per 500,000 cells | PCE Factor (K) (96 hr/0 hr) (PCEs 96 hr/PCEs 0 hr per 100,000 total cells): 2.49 and 1.36 and 2.07 and 2.22 and 2.12
